Like-named read-outs stand apart in the source and are kept apart here.
System: HepG2 cells
Assay: Exploratory toxicity: eight cell health parameters (CHP) by automated fluorescent cellular imaging (ArrayScan)
Assay type: cell-based
Conditions: for MTD (row Cell count): concentration at which <20% cell loss was observed; for AC50: Homo sapiens
Method: The polymeric carriers of this disclosure are not biodegradable. […] An exploratory toxicity study of a polymeric carrier of the present disclosure (without payload) was performed. Briefly, HepG2 cells were plated on 96-well black walled, clear bottomed polystyrene plates at 100 μL per well. Test compound was a H2N-G3-Cellophil copolymer (12 kDa) containing DMA and AK (90/10 mol %) that was prepared by the procedure described in example 13, step 7. The HepG2 cells were dosed with test compound at concentrations from 0.04 to 100 μM. At the end of 72-h incubation at 37° C., appropriate dies or antibodies were added to the cultures. The plates were then scanned using an automated fluorescent cellular imager (ArrayScan®, Thermo Scientific Cellomics).
The following eight cell health parameters (CHP) were evaluated:
Cell count: A decreasing number of cells per well indicates toxicity due to necrosis, apoptosis or a reduction in cellular proliferation. Nuclear size: An increase in nuclear area can indicate necrosis or G2 cell cycle arrest, and a decrease can indicate apoptosis. DNA structure: An increase in DNA structure can indicate chromosomal instability and DNA fragmentation. Mitochondrial mass: A decrease in mitochondrial mass indicates loss of total mitochondria and an increase implies mitochondrial swelling or an adaptive response to cellular energy demands. Mitochondrial membrane potential (Δψm): A decrease indicates a loss of mitochondrial integrity, typically resulting in apoptotic signaling; an increase in mitochondrial membrane potential indicates an adaptive response to cellular energy demands. Oxidative stress: An increase in reactive oxygen species (ROS) is an early cytotoxic response. Glutathione content: A decrease in glutathione (GSH) content can result from production of ROS or from direct binding to tested compound. An increase in GSH content represents an adaptive cellular response to oxidative stress. Cellular ATP: After cell lysis, ATP is released from the cell. Cells which are not metabolically active will not release any ATP. Therefore, a decrease in metabolically active cells will result in a decrease in the level of ATP detected.

[1] = HepG2, 72-h incubation, NR = no response

Compound | MEC, Cell count (HepG2, 72-h incubation at 37° C., 0.04 to 100 μM, MEC = lowest dose at which an effect is detected, NR = no response) | MEC, Cellular ATP [1] | MEC, Nuclear size [1] | MEC, Oxidative stress [1] | MEC, DNA structure (HepG2, 72-h incubation, NR = no response, NS = not statistical significant) | MTD (row Cell count) [1] | AC50 (HepG2, 72-h incubation, NR = no response, NS = not statistical significant, read-out: AC50, DNA structure) | AC50 (HepG2, 72-h incubation, NR = no response, read-out: AC50, Cellular ATP) | AC50 (HepG2, 72-h incubation, NR = no response, read-out: AC50, Glutathione content) | AC50 (HepG2, 72-h incubation, NR = no response, read-out: AC50, Mitochondrial mass) | AC50 (HepG2, 72-h incubation, NR = no response, read-out: AC50, Mitochondrial membrane potential) | AC50 (HepG2, 72-h incubation, NR = no response, read-out: AC50, Nuclear size) | AC50 (HepG2, 72-h incubation, NR = no response, read-out: AC50, Oxidative stress) | AC50 (HepG2, 72-h incubation, concentration at which 50% of the maximum effect is observed, NR = no response, read-out: AC50, Cell count) | MEC, Cellular ATP | MEC, Glutathione content
N#CC(C#N)=NNc1cccc(Cl)c1 [control 1, carbonyl cyanide 3-chlorophenylhydrazone] | 1.73 µM | 3.13 µM | 3.76 µM | 0.539 µM | 0.63 µM | 2 µM | 46.7 µM | 4.15 µM | > 100 µM | > 100 µM | > 100 µM | 8.09 µM | 22.4 µM | 2.54 µM | – | –
CCCCS(=N)(=O)CCC(N)C(=O)O [control 2, L-buthionine-sulfoximine] | – | – | – | – | – | 40 µM | – | – | – | – | – | – | – | – | 14.4 µM | 1.7 µM

Reference: US20210128735A1, “BIOCOMPATIBLE COPOLYMER CONTAINING MULTIPLE ACTIVE AGENT MOLECULES” (priority 2018, published 2021)
